The values that follow come from ChEMBL document CHEMBL3297669, “Suvanine sesterterpenes and deacyl irciniasulfonic acids from a tropical Coscinoderma sp. sponge” (J Nat Prod, 2014).

In brackets after ≈: the same amount, converted by molar mass. Where only a bound is given, the exact number is not on record here.

For one assay, the system named is K562. Description: Cytotoxicity against human K562 cells. Format: functional. The settings on record: read-out: LC50 (the source's name).
For a further assay, the system named is A549. Description: Cytotoxicity against human A549 cells. It counts as functional. As to conditions: read-out: LC50 (the source's name).
The subject of a further assay is Staphylococcus aureus. Nature of the assay: Antimicrobial activity against Staphylococcus aureus ATCC 6538p after 24 hrs by two-fold broth dilution method. Format: functional.
Another assay concerns Salmonella enterica. Nature of the assay: Antimicrobial activity against Salmonella enterica ATCC 14028 after 24 hrs by two-fold broth dilution method. Format: functional. The settings on record: ATCC 14028, 24 h.
For the next assay, the system named is Pyricularia grisea. Nature of the assay: Inhibition of Magnaporthe grisea Guy 11 isocitrate lyase.
Assay [1] in a line: Inhibition of sortase A (unknown origin).
The test system of another assay is Bacillus spizizenii. Description: Antimicrobial activity against Bacillus subtilis ATCC 6633 after 24 hrs by two-fold broth dilution method. It counts as functional. The settings on record: ATCC 6633, 24 h. On the technique in general: Dilution methods test growth across graded concentrations, often in twofold steps.
In a further assay the test system is Kocuria rhizophila. Description: Antimicrobial activity against Kocuria rhizophila NBRC 12708 after 24 hrs by two-fold broth dilution method. Format: functional. The settings on record: NBRC 12708, 24 h.
Another assay relates to Proteus hauseri. Nature of the assay: Antimicrobial activity against Proteus hauseri NBRC 3851 after 24 hrs by two-fold broth dilution method. The settings on record: NBRC 3851, 24 h. It counts as functional.
The test system of the next assay is Escherichia coli. Nature of the assay: Antimicrobial activity against Escherichia coli ATCC 35270 after 24 hrs by two-fold broth dilution method. Format: functional. As to conditions: ATCC 35270, 24 h.

As to `C/C(=C/C(=O)NCCS(=O)(=O)[O-])CCCCC[C@H](C)O.[Na+]`, the CC50 in the assay on K562 and in the assay on A549 was > 100 µg/mL throughout. The MIC in the assay with Staphylococcus aureus, in the assay with Salmonella enterica and with Pyricularia grisea was > 100 µg/mL throughout. Besides, in assay [1], the IC50 (as a rule, the point on the concentration scale where inhibition reaches its midpoint) is > 100 µM.

Regarding `O=C(O)CC[N+](=O)[O-]`, the MIC against Pyricularia grisea stood at 2.5 µg/mL (≈ 21 µM). In assay [1], the IC50 was > 100 µM.

In turn, `CC1(C)CCC[C@]2(C)[C@H]3CC/C(=C\OS(=O)(=O)[O-])[C@H](CCc4ccoc4)[C@@]3(C)CC[C@@H]12.C[N+](C)=C(N)N` yielded an MIC against Pyricularia grisea of 51 µg/mL.

Turning to `CC1(C)CCC[C@]2(C)[C@H]3CC/C(=C\OS(=O)(=O)[O-])[C@H](CCC4=CCN(CC(=O)O)C4=O)[C@@]3(C)CC[C@@H]12.[Na+]`, the CC50 was 1.3 µg/mL with K562 and 1.4 µg/mL with A549. The MIC against Staphylococcus aureus, against Bacillus spizizenii, in the assay with Kocuria rhizophila, with Salmonella enterica, against Proteus hauseri and in the assay on Escherichia coli was > 100 µg/mL each time. In the assay on Pyricularia grisea, this compound displayed an MIC of 62 µg/mL. In assay [1], the IC50 was > 100 µM.

Consider `CC1(C)CCC[C@]2(C)[C@H]3CC/C(=C\OS(=O)(=O)[O-])[C@H](CCc4ccoc4)[C@@]3(C)CC[C@@H]12.C[N+](C)=C(N)N` [SUVANINE], for which the CC50 in the assay on K562 is 0.9 µg/mL; in the assay on A549, 1.7 µg/mL. Further, the MIC with Staphylococcus aureus was > 100 µg/mL; with Bacillus spizizenii, 12.5 µg/mL; against Kocuria rhizophila, > 100 µg/mL; in the assay on Salmonella enterica, 25 µg/mL; against Proteus hauseri, 100 µg/mL; in the assay on Escherichia coli, > 100 µg/mL. In assay [1], the IC50 was > 100 µM.

`CC1(C)S[C@@H]2[C@H](NC(=O)[C@H](N)c3ccccc3)C(=O)N2[C@H]1C(=O)O` [AMPICILLIN]: the MIC is 0.39 µg/mL (≈ 1.12 µM) against Staphylococcus aureus; 0.39 µg/mL (≈ 1.12 µM) against Bacillus spizizenii; 0.39 µg/mL (≈ 1.12 µM) against Kocuria rhizophila; 0.39 µg/mL (≈ 1.12 µM) in the assay with Salmonella enterica; 0.78 µg/mL (≈ 2.23 µM) against Proteus hauseri; 3.12 µg/mL (≈ 8.93 µM) in the assay with Escherichia coli. The IC50 in assay [1] was > 100 µM.

Consider `C[C@@H]1O[C@@H](O[C@H]2C[C@@H](O)[C@]3(CO)[C@H]4[C@H](O)C[C@]5(C)[C@@H](C6=CC(=O)OC6)CC[C@]5(O)[C@@H]4CC[C@]3(O)C2)[C@H](O)[C@H](O)[C@H]1O` [OUABAIN], for which the IC50 in assay [1] is > 100 µM.

Take `CC1(C)CCC[C@]2(C)[C@H]3CC/C(=C\OS(=O)(=O)[O-])[C@H](CCC4=CCN(CCS(=O)(=O)O)C4=O)[C@@]3(C)CC[C@@H]12.[Na+]`: the CC50 was 4.6 µg/mL in the assay on K562 and 2 µg/mL with A549. Also, the MIC in the assay with Staphylococcus aureus, in the assay on Bacillus spizizenii, with Kocuria rhizophila, against Salmonella enterica, in the assay with Proteus hauseri and in the assay on Escherichia coli was > 100 µg/mL in each case. In addition, the MIC against Pyricularia grisea amounted to 90 µg/mL. Also, in assay [1], the IC50 is > 100 µM.

Turning to `CC(C)[C@@H](C(=O)O)N1CC(CC[C@H]2/C(=C/OS(=O)(=O)[O-])CC[C@H]3[C@]2(C)CC[C@H]2C(C)(C)CCC[C@]32C)=CC1=O.[Na+]`, the CC50 in the assay on K562 came to 3.9 µg/mL; with A549 it was 1.9 µg/mL. Further, the MIC in the assay on Staphylococcus aureus was > 100 µg/mL; in the assay on Bacillus spizizenii, > 100 µg/mL; with Kocuria rhizophila, > 100 µg/mL; against Salmonella enterica, 100 µg/mL; in the assay with Proteus hauseri, > 100 µg/mL; in the assay with Escherichia coli it was > 100 µg/mL. Further, the MIC against Pyricularia grisea amounted to 64 µg/mL. The IC50 in [1] was > 100 µM.

With `C[S+]([O-])CCCN1CC=C(CC[C@H]2/C(=C/OS(=O)(=O)[O-])CC[C@H]3[C@]2(C)CC[C@H]2C(C)(C)CCC[C@]32C)C1=O.[Na+]` (stereo not given in full), the CC50 with K562 came to 3.9 µg/mL; in the assay with A549, 5.5 µg/mL. For the same compound, the MIC against Staphylococcus aureus is > 100 µg/mL; in the assay on Salmonella enterica, 50 µg/mL; against Pyricularia grisea it was 24 µg/mL. Besides, the IC50 in [1] is > 100 µM.

The compound `CC1(C)CCC[C@]2(C)[C@H]3CC/C(=C\OS(=O)(=O)[O-])[C@H](CCc4ccoc4)[C@@]3(C)CC[C@@H]12.CN(C)c1n(C)c(=O)c2c([n+]1C)N(C)CN2C` [listing 1 of 2 here] registered an MIC in the assay on Pyricularia grisea of 28 µg/mL.

In the case of `C[C@H](C(=O)O)N1CC=C(CC[C@H]2/C(=C/OS(=O)(=O)[O-])CC[C@H]3[C@]2(C)CC[C@H]2C(C)(C)CCC[C@]32C)C1=O.[Na+]`, the CC50 in the assay on K562 was found to be 1.9 µg/mL; with A549, 1.1 µg/mL. In addition, the MIC was > 100 µg/mL with Staphylococcus aureus; > 100 µg/mL against Bacillus spizizenii; > 100 µg/mL in the assay with Kocuria rhizophila; 50 µg/mL in the assay on Salmonella enterica; > 100 µg/mL in the assay with Proteus hauseri; > 100 µg/mL against Escherichia coli. The MIC in the assay on Pyricularia grisea was 48 µg/mL. Moreover, in [1], the IC50 is > 100 µM.

As to `CC1(C)CCC[C@]2(C)[C@H]3CC/C(=C\OS(=O)(=O)[O-])[C@H](CCC4=CC(=O)N(CCS(=O)(=O)O)C4)[C@@]3(C)CC[C@@H]12.[Na+]`, the CC50 in the assay with K562 was found to be 3.6 µg/mL; in the assay with A549, 3.5 µg/mL. Moreover, the MIC against Staphylococcus aureus, with Bacillus spizizenii, against Kocuria rhizophila, in the assay on Salmonella enterica, with Proteus hauseri and against Escherichia coli was > 100 µg/mL throughout. Besides, in the assay with Pyricularia grisea, the MIC was determined as 50 µg/mL. For the same compound, the IC50 in assay [1] was > 100 µM.

On to `CC(=O)CCCCC/C(C)=C\C(=O)NCCS(=O)(=O)O`, for which the CC50 with K562 and in the assay on A549 was > 100 µg/mL in each case. In addition, the MIC in the assay on Staphylococcus aureus, in the assay with Bacillus spizizenii, with Kocuria rhizophila, against Salmonella enterica, with Proteus hauseri and with Escherichia coli was > 100 µg/mL in each case. The MIC in the assay with Pyricularia grisea was > 100 µg/mL. In addition, the IC50 in assay [1] is > 100 µM.

For the compound `COc1cccc2c1C(=O)c1c(O)c3c(c(O)c1C2=O)C[C@@](O)(C(=O)CO)C[C@@H]3O[C@H]1C[C@H](N)[C@H](O)[C@H](C)O1` [DOXORUBICIN], the CC50 came out at 0.7 µg/mL (≈ 1.29 µM) in the assay on K562 and 0.8 µg/mL (≈ 1.47 µM) with A549. Also, in [1], the IC50 is > 100 µM.

For the compound `CC1(C)CCC[C@]2(C)[C@H]3CC/C(=C\OS(=O)(=O)[O-])[C@H](CCc4ccoc4)[C@@]3(C)CC[C@@H]12.CN(C)c1n(C)c(=O)c2c([n+]1C)N(C)CN2C` [listing 2 of 2 here], the CC50 turned out to be 2.2 µg/mL in the assay with K562 and 1.9 µg/mL with A549. For the same compound, the MIC in the assay on Staphylococcus aureus is 6.25 µg/mL; with Bacillus spizizenii it was 0.78 µg/mL; with Kocuria rhizophila, 6.25 µg/mL; with Salmonella enterica, 0.78 µg/mL; against Proteus hauseri it was 6.25 µg/mL; against Escherichia coli, > 100 µg/mL. The IC50 in assay [1] is > 100 µM.
